# Test results taken from patent US12661342B2, “Heteroaryl compounds and therapeutic uses thereof in conditions associated with the alteration of the activity of beta-glucocerebrosidase” (GT GAIN THERAPEUTICS SA, priority 2019, dated 2026).
# Molecular target: T1, β-glucocerebrosidase (Homo sapiens, UniProt P04062, L483P)
# T1 construct: host or cells: human Gaucher disease patient fibroblasts GM08760A
# T1 sequence (P04062 40-536 L483P): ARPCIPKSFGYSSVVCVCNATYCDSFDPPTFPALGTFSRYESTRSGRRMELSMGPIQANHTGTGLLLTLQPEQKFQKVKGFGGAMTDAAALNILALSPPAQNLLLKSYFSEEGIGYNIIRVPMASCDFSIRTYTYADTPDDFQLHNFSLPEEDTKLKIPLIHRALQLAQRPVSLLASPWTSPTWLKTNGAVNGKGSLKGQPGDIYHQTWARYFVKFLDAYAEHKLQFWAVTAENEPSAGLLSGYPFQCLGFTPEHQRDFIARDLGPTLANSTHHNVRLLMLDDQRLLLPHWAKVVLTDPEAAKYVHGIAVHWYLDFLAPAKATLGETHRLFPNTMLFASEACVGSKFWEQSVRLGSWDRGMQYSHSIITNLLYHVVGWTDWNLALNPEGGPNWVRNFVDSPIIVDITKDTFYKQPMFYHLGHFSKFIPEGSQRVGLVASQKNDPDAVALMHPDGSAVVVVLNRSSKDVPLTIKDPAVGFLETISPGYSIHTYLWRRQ
# Experiment: Enhancement of β-glucocerebrosidase activity measured in Gaucher disease fibroblasts (4-MU-β-D-glucopyranoside substrate, intact cells)
# Format: cell-based
# Set-up: key: Increase in comparison with non-treated of >2.0 fold is shown as A; Increase in comparison with non-treated of >1.7-2.0 fold is shown as B; Increase in comparison with non-treated of 1.2-1.7 fold is shown as C; D means that no increase compared with non-treated cells was detected in this method
# Details: GBA fibroblasts bearing L444P (GM08760A, homozygous p.L444P); compound at concentrations between 6 and 50 μM; 4 days incubation
# Procedure: Human fibroblasts from a patient with Gaucher disease homozygous for p.L444P mutation (GM08760A) were purchased from Coriell Institute for Medical Research (Camden, NJ, USA).
# Fibroblasts were seeded at 5×10^3 cells per well in 96-well cell culture plates (Corning, NY, USA) in Dulbecco's Modified Eagle's Media (DMEM) supplemented with 10% of fetal bovine serum (FBS), 1% penicillin/streptomycin (P/S) (Thermo Fisher Scientific, Waltham, MA, USA) and grown at 37° C., 5% CO2 overnight for cell attachment. Subsequently, cells were incubated in the absence or presence of the compounds at the desired concentration for 4 days. After incubation, cells were washed twice with phosphate-buffered saline (PBS) and enzyme activity assay was performed.
# β-glucocerebrosidase activity in intact cultured cells was measured by using 4-methylumbelliferyl-β-D-glucopyranoside substrate (Apollo Scientific, UK). Briefly, cells were incubated with 4-MU-β-D-glucopyranoside in 0.1 M acetate buffer pH=4 at 37° C. for 1 hour. The reaction was stopped by adding 200 μL at 100 mM glycine-NaOH pH=10.7. The liberated 4-MU was measured on a GloMax Discover plate reader (Promega, Madison, WI, USA) with and excitation at 340 nm and emission at 460 nm. Enzyme activities were expressed in treated cells as X-fold increase in comparison with non-treated cells (X=1 represents no enhancement).
# The capacity of the compounds of the disclosure to produce an increase in enzyme activity in GBA fibroblasts bearing L444P at concentrations between 6 and 50 μM is denoted as follows: • Increase in comparison with non-treated of >2.0 fold is shown as A • Increase in comparison with non-treated of >1.7-2.0 fold is shown as B • Increase in comparison with non-treated of 1.2-1.7 fold is shown as C • D means that no increase compared with non-treated cells was detected in this method • ND means “not determined”
SMILES,Range: increase in enzyme activity in comparison with non-treated cells (Enzyme activity assay for exemplified compounds),Range: increase in enzyme activity in comparison with non-treated cells (Enzyme activity assay for compounds of Examples 33-141)
"COc1ccc(Nc2nc(N)nc3c2CCN(Cc2ccccc2)C3)cc1 [Example 26, 7-Benzyl-N4-(4-methoxyphenyl)-5,6,7,8-tetrahydropyrido[3,4-d]pyrimidine-2,4-diamine]",C (Increase in comparison with non-treated of 1.2-1.7 fold is shown as C),
"COc1cccc(Nc2nc(N)c3c(n2)CN(Cc2ccccc2)CC3)c1 [Example 27, 7-Benzyl-N^2-(3-methoxyphenyl)-5,6,7,8-tetrahydropyrido[3,4-d]pyrimidine-2,4-diamine]",A (Increase in comparison with non-treated of >2.0 fold is shown as A),
"COc1ccccc1Nc1nc(N)c2c(n1)CN(Cc1ccccc1)CC2 [Example 28, 7-Benzyl-N2-(2-methoxyphenyl)-5,6,7,8-tetrahydropyrido[3,4-d]pyrimidine-2,4-diamine]",C (Increase in comparison with non-treated of 1.2-1.7 fold is shown as C),
"Nc1nc(Nc2ccccc2O)nc2c1CCN(Cc1ccccc1)C2 [Example 29, 2-((4-Amino-7-benzyl-5,6,7,8-tetrahydropyrido[3,4-d]pyrimidin-2-yl)amino)phenol]",B (Increase in comparison with non-treated of >1.7-2.0 fold is shown as B),
"COc1ccc(Nc2nc(N)c3c(n2)CN(Cc2ccccc2)CC3)cc1 [Example 30, 7-Benzyl-N2-(4-methoxyphenyl)-5,6,7,8-tetrahydropyrido[3,4-d]pyrimidine-2,4-diamine]",C (Increase in comparison with non-treated of 1.2-1.7 fold is shown as C),
"COc1cccc(Nc2nc(N)c3c(n2)CCN(Cc2ccccc2)C3)c1.Cl [Example 31, 6-Benzyl-N2-(3-methoxyphenyl)-5,6,7,8-tetrahydropyrido[4,3-d]pyrimidine-2,4-diamine hydrochloride]",B (Increase in comparison with non-treated of >1.7-2.0 fold is shown as B),
"Nc1nc2c(c(Nc3ccccc3O)n1)CCN(c1ccccc1)C2 [Example 32, 2-((2-Amino-7-phenyl-5,6,7,8-tetrahydropyrido[3,4-d]pyrimidin-4-yl)amino)phenol]",B (Increase in comparison with non-treated of >1.7-2.0 fold is shown as B),
"CN(C(=O)c1cc(N)nc(N[C@H]2CCCC[C@@H]2O)n1)c1ccccc1 [Example 33, 6-Amino-2-(((1S,2S)-2-hydroxycyclohexyl)amino)-N-methyl-N-phenylpyrimidine-4-carboxamide]",,D
"COc1ccccc1Nc1cc(C(=O)N2CCN(c3ccccc3)CC2)nc(N)n1 [Example 34, (2-Amino-6-((2-methoxyphenyl)amino)pyrimidin-4-yl)(4-phenylpiperazin-1-yl)methanone]",,D
"Nc1cc(C(=O)N2CCc3ccccc3C2)nc(Nc2ccccc2O)n1 [Example 35, (6-Amino-2-((2-hydroxyphenyl)amino)pyrimidin-4-yl)(3,4-dihydroisoquinolin-2(1H)-yl)methanone]",,C (Increase in comparison with non-treated of 1.2-1.7 fold is shown as C)
"Nc1cc(C(=O)N2CCCc3ccccc32)nc(Nc2ccccc2O)n1 [Example 36, (6-Amino-2-((2-hydroxyphenyl)amino)pyrimidin-4-yl)(3,4-dihydroquinolin-1(2H)-yl)methanone]",,C (Increase in comparison with non-treated of 1.2-1.7 fold is shown as C)
"Nc1cc(C(=O)N2CCc3ccccc32)nc(Nc2ccccc2O)n1 [Example 37, (6-Amino-2-((2-hydroxyphenyl)amino)pyrimidin-4-yl)(indolin-1-yl)methanone]",,D
"COc1cccc(Nc2nc(N)cc(C(=O)N3Cc4ccccc4C3)n2)c1 [Example 38, (6-Amino-2-((3-methoxyphenyl)amino)pyrimidin-4-yl)(isoindolin-2-yl)methanone]",,D
"Nc1cc(C(=O)N2Cc3ccccc3C2)nc(Nc2cccc(O)c2)n1 [Example 39, (6-Amino-2-((3-hydroxyphenyl)amino)pyrimidin-4-yl)(isoindolin-2-yl)methanone]",,C (Increase in comparison with non-treated of 1.2-1.7 fold is shown as C)
"Cc1cccc(Nc2nc(N)cc(C(=O)N3Cc4ccccc4C3)n2)c1 [Example 40, (6-Amino-2-(m-tolylamino)pyrimidin-4-yl)(isoindolin-2-yl)methanone]",,C (Increase in comparison with non-treated of 1.2-1.7 fold is shown as C)
Nc1cc(C(=O)N2Cc3ccccc3C2)nc(Nc2cccc(Cl)c2)n1 [Example 41],,D
"CN(C(=O)c1cc(N)nc(Nc2ccccc2O)c1)C1CCc2ccccc2C1 (stereo not drawn) [Example 42, 2-Amino-6-((2-hydroxyphenyl)amino)-N-methyl-N-(1,2,3,4-tetrahydronaphthalen-2-yl)isonicotinamide]",,C (Increase in comparison with non-treated of 1.2-1.7 fold is shown as C)
"CN(C(=O)c1cc(N)nc(Nc2ccccc2O)c1)c1ccccc1 [Example 43, 2-Amino-6-((2-hydroxyphenyl)amino)-N-methyl-N-phenylisonicotinamide]",,C (Increase in comparison with non-treated of 1.2-1.7 fold is shown as C)
"CN(C(=O)c1cc(N)nc(Nc2ccccc2O)c1)C1Cc2ccccc2C1 [Example 44, 2-Amino-N-(2,3-dihydro-1H-inden-2-yl)-6-((2-hydroxyphenyl)amino)-N-methyl-isonicotinamide]",,C (Increase in comparison with non-treated of 1.2-1.7 fold is shown as C)
"Nc1cc(C(=O)NC2CCc3ccccc3C2)cc(Nc2ccccc2O)n1 (stereo not drawn) [Example 45, 2-Amino-6-((2-hydroxyphenyl)amino)-N-(1,2,3,4-tetrahydronaphthalen-2-yl)isonicotinamide]",,C (Increase in comparison with non-treated of 1.2-1.7 fold is shown as C)
"Nc1cc(C(=O)Nc2ccccc2)cc(Nc2ccccc2O)n1 [Example 46, 2-Amino-6-((2-hydroxyphenyl)amino)-N-phenylisonicotinamide]",,B (Increase in comparison with non-treated of >1.7-2.0 fold is shown as B)
"Nc1cc(C(=O)NC2Cc3ccccc3C2)cc(Nc2ccccc2O)n1 [Example 47, 2-Amino-N-(2,3-dihydro-1H-inden-2-yl)-6-((2-hydroxyphenyl)amino)isonicotinamide]",,C (Increase in comparison with non-treated of 1.2-1.7 fold is shown as C)
"Nc1cc(Nc2ccccc2F)nc(C(=O)N2CCN(c3ccccc3)CC2)c1 [Example 48, (4-Amino-6-((2-fluorophenyl)amino)pyridin-2-yl)(4-phenylpiperazin-1-yl)methanone]",,C (Increase in comparison with non-treated of 1.2-1.7 fold is shown as C)
"Nc1cc(Nc2ccccc2O)cc(C(=O)N2CCc3ccccc3C2)n1 [Example 49, (6-Amino-4-((2-hydroxyphenyl)amino)pyridin-2-yl)(3,4-dihydroisoquinolin-2(1H)-yl)methanone]",,B (Increase in comparison with non-treated of >1.7-2.0 fold is shown as B)
